Results reported in ChEMBL document CHEMBL3352042, “Synthesis of novel benzimidazole functionalized chiral thioureas and evaluation of their antibacterial and anticancer activities” (Bioorg Med Chem Lett, 2014).
pIC50: −log10 of the molar value. In brackets after ≈: the same amount, converted by molar mass. Activity calls are given as the source filed them. The calls are words filed in the database; no cut-off is given here.

Key:
[1] = tested on: Staphylococcus aureus; test: Antibacterial activity against Staphylococcus aureus MTCC 96 after 24 hrs by well diffusion method; format: functional
[2] = tested on: DU-145; test: Cytotoxicity against human DU145 cells by MTT assay; format: functional, cell-based; settings: for pIC50: Homo sapiens, DU-145, read-out: IC50
[3] = tested on: Raoultella planticola; test: Antibacterial activity against Klebsiella planticola MTCC 530 after 24 hrs by well diffusion method; format: functional
[4] = tested on: Micrococcus luteus; test: Antibacterial activity against Micrococcus luteus MTC 2470 after 24 hrs by well diffusion method; format: functional
[5] = tested on: Bacillus subtilis; test: Antibacterial activity against Bacillus subtilis MTCC 121 after 24 hrs by well diffusion method; format: functional
[6] = tested on: Pseudomonas aeruginosa; test: Antibacterial activity against Pseudomonas aeruginosa MTCC 2453 after 24 hrs by well diffusion method; format: functional
[7] = tested on: HeLa; test: Cytotoxicity against human HeLa cells by MTT assay; format: functional, cell-based; settings: for IC50: hela; for pIC50: Homo sapiens, HeLa, read-out: IC50
[8] = tested on: Escherichia coli; test: Antibacterial activity against Escherichia coli MTCC 739 after 24 hrs by well diffusion method; format: functional
[9] = tested on: MCF7; test: Cytotoxicity against human MCF7 cells by MTT assay; format: functional, cell-based; settings: for IC50: mcf7; for pIC50: Homo sapiens, MCF7, read-out: IC50
[10] = tested on: A549; test: Cytotoxicity against human A549 cells by MTT assay; format: functional, cell-based; settings: for pIC50: Homo sapiens, A549, read-out: IC50
[11] = tested on: Staphylococcus aureus; test: Antibacterial activity against Staphylococcus aureus MLS16 MTCC 2940 after 24 hrs by well diffusion method; format: functional

Structure (SMILES)	MIC [1]	MIC [4]	MIC [5]	MIC [6]	MIC [8]	MIC [11]	MIC ([1]; MTCC 96, 24 h) [µg/mL]	MIC ([4]; MTC 2470, 24 h) [µg/mL]	MIC ([5]; MTCC 121, 24 h) [µg/mL]	MIC ([6]; MTCC 2453, 24 h) [µg/mL]	MIC ([8]; MTCC 739, 24 h) [µg/mL]	MIC ([11]; MLS16 MTCC 2940, 24 h) [µg/mL]	pIC50 [2]	MIC [3]	IC50 [7]	pIC50 [10]	pIC50 [7]	pIC50 [9]	MIC ([3]; MTCC 530, 24 h) [µg/mL]	other results
C[C@@H](NC(=S)Nc1cc(C(F)(F)F)cc(C(F)(F)F)c1)c1nc2ccccc2[nH]1	inactive	inactive	inactive	inactive	inactive	inactive	–	–	–	–	–	–	4.75	inactive	–	4.82	4.79	4.99	–	–
C[C@H](NC(=S)Nc1cc(C(F)(F)F)cc(C(F)(F)F)c1)c1nc2ccccc2[nH]1	–	–	–	–	–	–	12.5 (≈ 28.9 µM)	25 (≈ 57.8 µM)	25 (≈ 57.8 µM)	> 200	> 200	12.5 (≈ 28.9 µM)	3.81	–	–	3.66	3.88	3.73	> 200	–
NC[C@@H]1O[C@H](O[C@H]2[C@@H](O)[C@H](O[C@@H]3[C@@H](O)[C@H](N)C[C@H](N)[C@H]3O[C@H]3O[C@H](CN)[C@@H](O)[C@H](O)[C@H]3N)O[C@@H]2CO)[C@H](N)[C@@H](O)[C@@H]1O [FRAMYCETIN]	–	–	–	–	–	–	12.5 (≈ 20.3 µM)	12.5 (≈ 20.3 µM)	12.5 (≈ 20.3 µM)	12.5 (≈ 20.3 µM)	12.5 (≈ 20.3 µM)	12.5 (≈ 20.3 µM)	–	–	–	–	–	–	12.5 (≈ 20.3 µM)	–
FC(F)(F)c1cc(NC(=S)N[C@H](Cc2ccccc2)c2nc3ccccc3[nH]2)cc(C(F)(F)F)c1	inactive	inactive	inactive	inactive	inactive	inactive	–	–	–	–	–	–	4.76	inactive	–	4.80	4.88	4.92	–	–
COc1cccc2c1C(=O)c1c(O)c3c(c(O)c1C2=O)C[C@@](O)(C(=O)CO)C[C@@H]3O[C@H]1C[C@H](N)[C@H](O)[C@H](C)O1 [DOXORUBICIN]	–	–	–	–	–	–	–	–	–	–	–	–	6.10	–	–	–	–	–	–	–

More lines, main results first:

MIC [1]	MIC [4]	MIC [5]	MIC [6]	MIC [8]	MIC [11]	MIC ([1]; MTCC 96, 24 h) [µg/mL]	MIC ([4]; MTC 2470, 24 h) [µg/mL]	MIC ([5]; MTCC 121, 24 h) [µg/mL]	MIC ([6]; MTCC 2453, 24 h) [µg/mL]	MIC ([8]; MTCC 739, 24 h) [µg/mL]	MIC ([11]; MLS16 MTCC 2940, 24 h) [µg/mL]	Structure (SMILES)	pIC50 [2]	MIC [3]	IC50 [7]	pIC50 [10]	pIC50 [7]	pIC50 [9]	MIC ([3]; MTCC 530, 24 h) [µg/mL]	other results
inactive	inactive	inactive	inactive	inactive	inactive	–	–	–	–	–	–	CC(C)[C@@H](NC(=S)Nc1ccccc1)c1nc2ccccc2[nH]1	4.46	inactive	Not Active	4.50	–	–	–	IC50 [9]: Not Active
–	–	–	–	–	–	25 (≈ 67.1 µM)	> 200	> 200	> 200	12.5 (≈ 33.6 µM)	> 200	S=C(Nc1ccccc1)N[C@@H](Cc1ccccc1)c1nc2ccccc2[nH]1	–	–	Not Active	–	–	–	> 200	IC50 ([2]; du-145): Not Active; IC50 [9]: Not Active; IC50 ([10]; a549): Not Active
–	–	–	–	–	–	> 200	> 200	> 200	> 200	> 200	> 200	CC(C)C[C@H](NC(=S)NCc1ccccc1)c1nc2ccccc2[nH]1	4.68	–	–	4.12	4.51	–	> 200	–
–	–	–	–	–	–	12.5 (≈ 24.6 µM)	> 200	> 200	> 200	12.5 (≈ 24.6 µM)	> 200	FC(F)(F)c1cc(NC(=S)N[C@@H](Cc2ccccc2)c2nc3ccccc3[nH]2)cc(C(F)(F)F)c1	4.69	–	–	4.72	4.74	4.72	> 200	–
inactive	inactive	inactive	inactive	inactive	inactive	–	–	–	–	–	–	C[C@@H](NC(=S)NCc1ccccc1)c1nc2ccccc2[nH]1	4.54	inactive	Not Active	4.73	–	4.84	–	–
